Patent US9637487B2, “Purinone compounds as kinase inhibitors” (Pharmacyclics LLC, priority 2013, dated 2017)

Target: Btk (Homo sapiens (Human), UniProt Q06187)
Experiment: Btk in vitro inhibitory activity (one of Method A TR-FRET, Method B mobility shift, Method C radiometric filter binding)
Assay type: biochemical
Details: determined using one of the methods outlined in Example 36a, 36b and 36c
Method: Btk kinase activity is determined using a time-resolved fluorescence resonance energy transfer (TR-FRET) methodology. Measurements are performed in a reaction volume of 50 μL using 96-well assay plates. […] The reaction is quenched by the addition of 1.2 equivalents of EDTA (relative to divalent cation) in 25 μL of 1× Lance buffer (Perkin-Elmer). […] The TR-FRET signal is measured on a multimode plate reader with an excitation wavelength (λEx) of 330 nm and detection wavelengths (λEm) of 615 and 665 nm. Activity is determined by the ratio of the fluorescence at 665 nm to that at 615 nm. For each compound, enzyme activity is measured at various concentrations of compound. Negative control reactions are performed in the absence of inhibitor in replicates of six, and two no-enzyme controls are used to determine baseline fluorescence levels Inhibition constants, Ki(app), ware obtained using the program BatchKi (Kuzmic et al. (2000), Anal. Biochem. 286:45-50). IC50s are obtained according to the equation: IC50={Ki(app)/(1+[ATP]/Km^ATP)}+[E]total/2;
Kinase activity is measured in vitro using electrophoretic mobility shift assay. The kinase reactions are assembled in a total volume of 25 μL in 384 well plates. […] The reaction is incubated for one hour and is quenched by the addition of 45 μL of termination buffer (100 mM HEPES, pH7.5, 0.01% Triton X-100, 30 mM EDTA). The terminated reactions are analyzed using 12 channel LabChip® 3000 microfluidic detection instrument (Caliper Life Sciences). […] Change in the relative fluorescence intensity of the substrate and product peaks is the parameter measured, reflecting enzyme activity. In the presence of an inhibitor, the ratio between product and substrate is altered: the signal of the product decreases, while the signal of the substrate increases.
Activity in each sample is determined as the product to sum ratio (PSR):P/(S+P), where P is the peak height of the product peptide and S is the peak height of the substrate peptide. For each compound, enzyme activity is measured at various concentrations (12 concentrations of compound spaced by 3× dilution intervals). Negative control samples (0%-inhibition in the absence of inhibitor) and positive control samples (100%-inhibition, in the presence of 20 mM EDTA) are assembled in replicates of four and are used to calculate %-inhibition values for each inhibitor at each concentration. Percent inhibition (Pinh) is determined using following equation: Pinh=(PSR0%−PSRinh)/(PSR0%−PSR100%)*100, where PSRinh is the product sum ratio in the presence of inhibitor, PSR0% is the average product sum ration in the absence of inhibitor and PSR100% is the average product sum ratio in 100%-inhibition control samples;
The IC50 values of inhibitors are determined by 4 parameter sigmoidal dose-response model fitting of the inhibition curves (Pinh versus inhibitor concentration) using XLfit 4 software.
IC50 values and curve fits were obtained using Prism (GraphPad Software).
The degree of Btk inhibition was determined using one of the methods outlined in Example 36a, 36b and 36c.

Sequence of Btk (Q06187 whole entry): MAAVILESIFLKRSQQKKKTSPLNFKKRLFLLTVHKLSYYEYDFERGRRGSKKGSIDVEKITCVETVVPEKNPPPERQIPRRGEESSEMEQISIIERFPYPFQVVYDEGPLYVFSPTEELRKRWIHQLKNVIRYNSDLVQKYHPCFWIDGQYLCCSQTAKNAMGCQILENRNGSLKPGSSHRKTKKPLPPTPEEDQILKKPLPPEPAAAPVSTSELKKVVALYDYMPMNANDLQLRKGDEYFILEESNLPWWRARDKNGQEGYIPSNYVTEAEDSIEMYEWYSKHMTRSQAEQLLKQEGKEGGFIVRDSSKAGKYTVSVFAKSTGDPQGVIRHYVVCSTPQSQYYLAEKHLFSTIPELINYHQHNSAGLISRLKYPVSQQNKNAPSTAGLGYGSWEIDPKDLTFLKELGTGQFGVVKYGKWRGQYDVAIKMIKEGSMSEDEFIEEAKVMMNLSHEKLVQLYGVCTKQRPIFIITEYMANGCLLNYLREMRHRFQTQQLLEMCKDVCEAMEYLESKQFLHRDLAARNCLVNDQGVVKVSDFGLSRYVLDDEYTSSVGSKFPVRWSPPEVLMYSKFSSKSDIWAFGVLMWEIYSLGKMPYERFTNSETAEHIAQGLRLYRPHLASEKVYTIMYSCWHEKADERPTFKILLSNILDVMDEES

Q: Which IC50 does the source give for `CN(C(=O)/C=C/CN1CCCC1)c1cccc(-n2c(=O)n(-c3ccc(Oc4ccccc4)cc3)c3c(N)ncnc32)c1` [Compound 52, (E)-N-(3-(6-amino-8-oxo-7-(4-phenoxyphenyl)-7H-purin-9(8H)-yl)phenyl)-N-methyl-4-(pyrrolidin-1-yl)but-2-enamide] here?
A: < 100 nM

Q: For `CN(C(=O)/C=C/CN(C)C1CC1)c1cccc(-n2c(=O)n(-c3ccc(Oc4ccccn4)cc3)c3c(N)ncnc32)c1` [Compound 63, (E)-N-(3-(6-amino-8-oxo-7-(4-(pyridin-2-yloxy)phenyl)-7H-purin-9(8H)-yl)phenyl)-4-(cyclopropyl(methyl)amino)-N-methylbut-2-enamide], which IC50 is on record?
A: < 100 nM

Q: Which IC50 does the source give for `Cc1nnc(NC(=O)c2ccc(-n3c(=O)n(-c4cccc(N(C)C(=O)/C=C/CN(C)C)c4)c4ncnc(N)c43)cc2)s1` [Compound 24, (E)-4-(6-amino-9-(3-(4-(dimethylamino)-N-methylbut-2-enamido)phenyl)-8-oxo-8,9-dihydro-7H-purin-7-yl)-N-(5-methyl-1,3,4-thiadiazol-2-yl)benzamide] here?
A: 1000 to 10000 nM

Q: How did the IC50 turn out when `CN(C)C/C=C/C(=O)N(C)c1cccc(-n2c(=O)n(-c3ccc(OC4CC4)cc3)c3c(N)ncnc32)c1` [Compound 28, (E)-N-(3-(6-amino-7-(4-cyclopropoxyphenyl)-8-oxo-7H-purin-9(8H)-yl)phenyl)-4-(dimethylamino)-N-methylbut-2-enamide] was run?
A: 100 to 1000 nM

Q: How did the IC50 turn out when `CN(C)C/C=C/C(=O)N(C)c1cccc(-n2c(=O)n(-c3ccc(C(=O)Nc4nccs4)cc3)c3c(N)ncnc32)c1` [Compound 18, (E)-4-(6-amino-9-(3-(4-(dimethylamino)-N-methylbut-2-enamido)phenyl)-8-oxo-8,9-dihydro-7H-purin-7-yl)-N-(thiazol-2-yl)benzamide] was run?
A: < 100 nM

Q: How did the IC50 turn out when `CN(C(=O)CC#N)c1cccc(-n2c(=O)n(-c3ccc(Oc4ccccc4)cc3)c3c(N)ncnc32)c1` [Compound 33, N-(3-(6-amino-8-oxo-7-(4-phenoxyphenyl)-7H-purin-9(8H)-yl)phenyl)-2-cyano-N-methylacetamide] was run?
A: 100 to 1000 nM

Q: Which IC50 does the source give for `CN(C)C/C=C/C(=O)N(C)c1cccc(-n2c(=O)n(-c3ccc(C(=O)Nc4nc5ccccc5s4)cc3)c3c(N)ncnc32)c1` [Compound 23, (E)-4-(6-amino-9-(3-(4-(dimethylamino)-N-methylbut-2-enamido)phenyl)-8-oxo-8,9-dihydro-7H-purin-7-yl)-N-(benzo[d]thiazol-2-yl)benzamide] here?
A: < 100 nM

Q: How did the IC50 turn out when `CN(C)C/C=C/C(=O)N(C)c1cccc(-n2c(=O)n(-c3ccc(C(=O)Nc4cccc(-c5ncccn5)c4)cc3)c3c(N)ncnc32)c1` [Compound 12, (E)-4-(6-amino-9-(3-(4-(dimethylamino)-N-methylbut-2-enamido)phenyl)-8-oxo-8,9-dihydro-7H-purin-7-yl)-N-(3-(pyrimidin-2-yl)phenyl)benzamide] was run?
A: < 100 nM

Q: Which IC50 does the source give for `CN(C)C/C=C/C(=O)N(C)c1cccc(-n2c(=O)n(-c3ccc(C(=O)Nc4cc(C(F)(F)F)ccn4)cc3)c3c(N)ncnc32)c1` [Compound 10, (E)-4-(6-amino-9-(3-(4-(dimethylamino)-N-methylbut-2-enamido)phenyl)-8-oxo-8,9-dihydro-7H-purin-7-yl)-N-(4-(trifluoromethyl)pyridin-2-yl)benzamide] here?
A: < 100 nM

Q: How did the IC50 turn out when `Cc1nc(NC(=O)c2ccc(-n3c(=O)n(-c4cccc(N(C)C(=O)/C=C/CN(C)C)c4)c4ncnc(N)c43)cc2)sc1C` [Compound 21, (E)-4-(6-amino-9-(3-(4-(dimethylamino)-N-methylbut-2-enamido)phenyl)-8-oxo-8,9-dihydro-7H-purin-7-yl)-N-(4,5-dimethylthiazol-2-yl)benzamide] was run?
A: < 100 nM

Q: Which IC50 does the source give for `CN(C)C/C=C/C(=O)N(C)c1cccc(-n2c(=O)n(-c3ccc(C(=O)Nc4ccc(F)cn4)cc3)c3c(N)ncnc32)c1` [Compound 14, (E)-4-(6-amino-9-(3-(4-(dimethylamino)-N-methylbut-2-enamido)phenyl)-8-oxo-8,9-dihydro-7H-purin-7-yl)-N-(5-fluoropyridin-2-yl)benzamide] here?
A: < 100 nM

Q: Which IC50 does the source give for `Cc1cc(NC(=O)c2ccc(-n3c(=O)n(-c4cccc(N(C)C(=O)/C=C/CN(C)C)c4)c4ncnc(N)c43)cc2)ncc1F` [Compound 16, (E)-4-(6-amino-9-(3-(4-(dimethylamino)-N-methylbut-2-enamido)phenyl)-8-oxo-8,9-dihydro-7H-purin-7-yl)-N-(5-fluoro-4-methylpyridin-2-yl)benzamide] here?
A: < 100 nM

Q: Which IC50 does the source give for `Cc1cnc(NC(=O)c2ccc(-n3c(=O)n(-c4cccc(N(C)C(=O)/C=C/CN(C)C)c4)c4ncnc(N)c43)cc2)s1` [Compound 19, (E)-4-(6-amino-9-(3-(4-(dimethylamino)-N-methylbut-2-enamido)phenyl)-8-oxo-8,9-dihydro-7H-purin-7-yl)-N-(5-methylthiazol-2-yl)benzamide] here?
A: < 100 nM
